Assay results reported in patent publication US8653110B2, “Active compound combination comprising azadirachtin and a substituted enaminocarbonyl compound” (Bayer CropScience AG, priority 2010, dated 2014).

Experiments:
Diabrotica balteata = Diabrotica balteata test, larvae in soil (Example 4); format: in vivo; settings: soil treatment, maize, (I-1) 60 g of ai/ha, Azadirachta indica 20%, combination 60 g + 20%
Method: • Solvent: 4 parts by weight of acetone • Emulsifier: 1 part by weight of alkylaryl polyglycol ether
The active compound preparation was mixed with soil. […] The treated soil is filled into pots, and 5 maize corns are placed into each pot. 3 days after sowing, larvae of the corn rootworm (Diabrotica balteata) are placed into the treated soil.
The efficacy is calculated from the number of maize plants that have emerged.

Spodoptera frugiperda = experiment: Fall armyworm caterpillars on maize, feeding damage (Example 8); format: in vivo; settings: reduction of feeding damage
[1] = tested on: Trialeurodes vaporariorum; experiment: Whiteflies on tomatoes (Example 5); format: in vivo
Method: Example 5 describes the effect of the combination according to the invention against whiteflies (Trialeurodes vaporariorum) on tomatoes (Lycopersicon esculentum). The test was carried out under GEP according to EPPO guideline PP 1/36(2) with 3 repetitions of in each case 4 plants. At the start of the infection, the plants were treated as follows: • 1. untreated • 2. compound (I-1) as SL 200 (compound according to formula (I-1), 17% strength), 50 g of active compound/ha • 3. azadirachtin 30 g of active compound/ha, NeemAzal® • 4. azadirachtin 15 g of active compound/ha, NeemAzal® • 5. azadirachtin 5 g of active compound/ha, NeemAzal® • 6. compound (I-1) as SL 200+azadirachtin, 50+30 g of active compound/ha • 7. compound (I-1) as SL 200+azadirachtin, 50+15 g of active compound/ha • 8. compound (I-1) as SL 200+azadirachtin, 50+5 g of active compound/ha • 9. positive control imidacloprid 100 g of active compound/ha
The spray solution was prepared by mixing commercial formulations and using water to adjust to the concentration mentioned. The application rate was 1000 l/ha. 2 applications were carried out at intervals of 14 days. The number of adult flies and the number of larvae were scored on days 2 to 21 after the first application. What is shown is the effect of the products, which becomes evident in a reduction of the number of insects or larvae compared to the untreated control. Imidacloprid was also tested, as positive control.

Tetranychus urticae = experiment: Greenhouse red spider mite on roses (Example 7); format: in vivo
Method: Example 7 describes the effect of the combination according to the invention on the greenhouse red spider mite (Tetranychus urticae) on roses. The test was carried out in a greenhouse under GEP according to EPPO guideline PP 1/168(2) with 4 repetitions of in each case 4 plants. At the start of the infection, the plants were treated as follows: • 1. untreated • 2. compound (I-1) as SL 200 (compound according to formula (I-1), 17% strength), 50 g of active compound/ha • 3. azadirachtin 30 g of active compound/ha, NeemAzal® • 4. azadirachtin 5 g of active compound/ha, NeemAzal® • 5. compound (I-1) as SL 200+azadirachtin, 50+30 g of active compound/ha • 6. compound (I-1) as SL 200+azadirachtin, 50+5 g of active compound/ha • 7. positive control imidacloprid 100 g of active compound/ha
The spray solution was prepared by mixing commercial formulations and using water to adjust to the concentration mentioned. The application rate was 1000 l/ha. 2 applications were carried out at intervals of 14 days. The number of spider mites on days 2 to 32 after the first application was scored. What is shown is the effect of the products, which becomes evident in a reduction of the number of spider mites compared to the untreated control.

Phaedon cochleariae = Phaedon cochleariae larvae test (Example 3); settings: cabbage leaves sprayed, (I-1) 120 g of ai/ha, Azadirachta indica 20%, combination 120 g + 20%
Cyclocephala immaculata = experiment: Watering test with beetle larvae (Example 2); format: in vivo; settings: for Effect on day 1 in % / Effect on day 4 in % / Effect on day 7 in % / Effect on day 14 in %: L3 larvae, watering, (I-1) 600, azadirachtin 60, (I-1)+azadirachtin 600+60, trichlorfon 4529 g of active compound/ha
Text: Beetle larvae (grubs) are important lawn pests. On the one hand, they feed on grass roots, damaging them directly, on the other hand they are a favoured food for birds which, searching for grubs, destroy the turf. For treatment against grubs, infested lawns are usually watered with insecticidal compositions. This type of treatment is emulated in the laboratory by Example 2.
To prepare a suitable active compound preparation, a commercial formulation of active compound or active compound combination is mixed with water until the desired concentration is reached. Pots with soil substrate were watered with the following active compound preparations: • 1. untreated • 2. compound (I-1) as SL 200, 600 g of active compound/ha • 3. azadirachtin, 60 g of active compound/ha • 4. compound (I-1) as SL 200+azadirachtin, 600+60 g of active compound/ha • 5. positive control: trichlorfon 4529 g of active compound/ha
L3 larvae of Cyclocephala immaculata were placed onto the pots. After 1, 4, 7, 14 days, the survival rate was determined, and this was used to calculate the efficacy of the compositions. 100% means that all grubs were killed, 0% means no activity.

[2] = Day 7, (I-1) 50, azadirachtin 30, (I-1)+azadirachtin 50+30, imidacloprid 100 g/ha
[3] = Day 14, (I-1) 50, azadirachtin 30, (I-1)+azadirachtin 50+30, imidacloprid 100 g/ha
[4] = Day 21, (I-1) 50, azadirachtin 30, (I-1)+azadirachtin 50+30, imidacloprid 100 g/ha
[5] = Days 28-32, (I-1) 50, azadirachtin 30, (I-1)+azadirachtin 50+30, imidacloprid 100 g/ha
[6] = Days 35-42, (I-1) 50, azadirachtin 30, (I-1)+azadirachtin 50+30, imidacloprid 100 g/ha
[7] = Day 2, (I-1) 50, azadirachtin 30, (I-1)+azadirachtin 50+30, imidacloprid 100 g/ha
[8] = Day 7, azadirachtin 5, (I-1)+azadirachtin 50+5 g/ha
[9] = Day 14, azadirachtin 5, (I-1)+azadirachtin 50+5 g/ha
[10] = Day 21, azadirachtin 5, (I-1)+azadirachtin 50+5 g/ha
[11] = Days 28-32, azadirachtin 5, (I-1)+azadirachtin 50+5 g/ha
[12] = Day 2, azadirachtin 5, (I-1)+azadirachtin 50+5 g/ha
[13] = Day 2, azadirachtin 15, (I-1)+azadirachtin 50+15 g/ha
[14] = Day 7, azadirachtin 15, (I-1)+azadirachtin 50+15 g/ha
[15] = Day 14, azadirachtin 15, (I-1)+azadirachtin 50+15 g/ha
[16] = Day 21, azadirachtin 15, (I-1)+azadirachtin 50+15 g/ha

O=C1C=C(N(Cc2ccc(Cl)nc2)CC(F)F)CO1 [(I-1), 4-{[(6-chloropyrid-3-yl)methyl](2,2-difluoroethyl)amino}furan-2(5H)-one]
Kill in % after 5d (found) (Diabrotica balteata): 75% | Activity against Spodoptera frugiperda [%] (Spodoptera frugiperda; [2]): 0% | Activity against Spodoptera frugiperda [%] (Spodoptera frugiperda; [3]): 0% | Activity against Spodoptera frugiperda [%] (Spodoptera frugiperda; [4]): 0% | Activity against Spodoptera frugiperda [%] (Spodoptera frugiperda; [5]): 0% | Activity against Spodoptera frugiperda [%] (Spodoptera frugiperda; [6]): 0% | Activity against adults [%] [1, 7]: 73% | Activity against larvae [%] [1, 7]: 0% | Activity against adults [%] [1, 2]: 75% | Activity against larvae [%] [1, 2]: 18% | Activity against adults [%] [1, 3]: 22% | Activity against larvae [%] [1, 3]: 0% | Activity against adults [%] [1, 4]: 57% | Activity against larvae [%] [1, 4]: 14% | Activity against Tetranychus urticae [%] (Tetranychus urticae; [7]): 28% | Activity against Tetranychus urticae [%] (Tetranychus urticae; [2]): 15% | Activity against Tetranychus urticae [%] (Tetranychus urticae; [3]): 43% | Activity against Tetranychus urticae [%] (Tetranychus urticae; [4]): 12% | Activity against Tetranychus urticae [%] (Tetranychus urticae; [5]): 15% | Kill in % after 1d (found) (Phaedon cochleariae): 15% | Effect on day 1 in % (Cyclocephala immaculata): 0% | Effect on day 4 in % (Cyclocephala immaculata): 28% | Effect on day 7 in % (Cyclocephala immaculata): 0% | Effect on day 14 in % (Cyclocephala immaculata): 29%

C/C=C(\C)C(=O)O[C@H]1C[C@@H](OC(C)=O)[C@@]2(C(=O)OC)CO[C@H]3[C@@H](O)[C@@](C)([C@]45O[C@@]4(C)[C@H]4C[C@@H]5O[C@@H]5OC=C[C@@]54O)[C@H]4[C@]1(CO[C@]4(O)C(=O)OC)[C@@H]32 [azadirachtin]
Activity against Spodoptera frugiperda [%] (Spodoptera frugiperda; [2]): 0% | Activity against Spodoptera frugiperda [%] (Spodoptera frugiperda; [8]): 0% | Activity against Spodoptera frugiperda [%] (Spodoptera frugiperda; [3]): 7% | Activity against Spodoptera frugiperda [%] (Spodoptera frugiperda; [9]): 29% | Activity against Spodoptera frugiperda [%] (Spodoptera frugiperda; [4]): 53% | Activity against Spodoptera frugiperda [%] (Spodoptera frugiperda; [10]): 61% | Activity against Spodoptera frugiperda [%] (Spodoptera frugiperda; [5]): 84% | Activity against Spodoptera frugiperda [%] (Spodoptera frugiperda; [11]): 77% | Activity against Spodoptera frugiperda [%] (Spodoptera frugiperda; [6]): 80% | Activity against Spodoptera frugiperda [%] (Spodoptera frugiperda; Days 35-42, azadirachtin 5, (I-1)+azadirachtin 50+5 g/ha): 81% | Activity against adults [%] [1, 7]: 45% | Activity against larvae [%] [1, 7]: 0% | Activity against adults [%] [1, 12]: 23% | Activity against larvae [%] [1, 12]: 0% | Activity against adults [%] [1, 13]: 47% | Activity against larvae [%] [1, 13]: 0% | Activity against adults [%] [1, 2]: 47% | Activity against larvae [%] [1, 2]: 2% | Activity against adults [%] [1, 8]: 7% | Activity against larvae [%] [1, 8]: 24% | Activity against adults [%] [1, 14]: 54% | Activity against larvae [%] [1, 14]: 13% | Activity against adults [%] [1, 3]: 32% | Activity against larvae [%] [1, 3]: 13% | Activity against adults [%] [1, 9]: 0% | Activity against larvae [%] [1, 9]: 12% | Activity against adults [%] [1, 15]: 49% | Activity against larvae [%] [1, 15]: 37% | Activity against adults [%] [1, 4]: 56% | Activity against larvae [%] [1, 4]: 0% | Activity against adults [%] [1, 10]: 16% | Activity against larvae [%] [1, 10]: 0% | Activity against adults [%] [1, 16]: 80% | Activity against larvae [%] [1, 16]: 0% | Activity against Tetranychus urticae [%] (Tetranychus urticae; [7]): 21% | Activity against Tetranychus urticae [%] (Tetranychus urticae; [12]): 30% | Activity against Tetranychus urticae [%] (Tetranychus urticae; [2]): 16% | Activity against Tetranychus urticae [%] (Tetranychus urticae; [8]): 0% | Activity against Tetranychus urticae [%] (Tetranychus urticae; [3]): 20% | Activity against Tetranychus urticae [%] (Tetranychus urticae; [9]): 10% | Activity against Tetranychus urticae [%] (Tetranychus urticae; [4]): 7% | Activity against Tetranychus urticae [%] (Tetranychus urticae; [10]): 19% | Activity against Tetranychus urticae [%] (Tetranychus urticae; [5]): 0% | Activity against Tetranychus urticae [%] (Tetranychus urticae; [11]): 6% | Effect on day 1 in % (Cyclocephala immaculata): 0% | Effect on day 4 in % (Cyclocephala immaculata): 0% | Effect on day 7 in % (Cyclocephala immaculata): 0% | Effect on day 14 in % (Cyclocephala immaculata): 7% | effect on grubs (Cyclocephala immaculata; entire duration of the test, azadirachtin 60 g of active compound/ha): no effect

O=[N+]([O-])NC1=NCCN1Cc1ccc(Cl)nc1 [imidacloprid]
Activity against Spodoptera frugiperda [%] (Spodoptera frugiperda; [2]): 24% | Activity against Spodoptera frugiperda [%] (Spodoptera frugiperda; [3]): 57% | Activity against Spodoptera frugiperda [%] (Spodoptera frugiperda; [4]): 14% | Activity against Spodoptera frugiperda [%] (Spodoptera frugiperda; [5]): 12% | Activity against Spodoptera frugiperda [%] (Spodoptera frugiperda; [6]): 10% | Activity against adults [%] [1, 7]: 51% | Activity against larvae [%] [1, 7]: 0% | Activity against adults [%] [1, 2]: 89% | Activity against larvae [%] [1, 2]: 60% | Activity against adults [%] [1, 3]: 68% | Activity against larvae [%] [1, 3]: 50% | Activity against adults [%] [1, 4]: 65% | Activity against larvae [%] [1, 4]: 52% | Activity against Tetranychus urticae [%] (Tetranychus urticae; [7]): 20% | Activity against Tetranychus urticae [%] (Tetranychus urticae; [2]): 16% | Activity against Tetranychus urticae [%] (Tetranychus urticae; [3]): 11% | Activity against Tetranychus urticae [%] (Tetranychus urticae; [4]): 27% | Activity against Tetranychus urticae [%] (Tetranychus urticae; [5]): 46%
